Source: patent US12441763B2, “Hangtaimycin derivatives and their preparation methods and application” (WUHAN UNIVERSITY, priority 2022, dated 2025)

Assays:
[1] = test system: carrageenan-induced paw inflammation; test: Anti-inflammatory effect in inflammatory model induced by carrageenan (paw); type: in vivo, Kunming mice; conditions: 10 mg/mL, 10 μL subcutaneous into right hind paw; 4 hours after carrageenan injection; vs carrageenan+solvent group; P<0.05
Procedure: Male Kunming mice weighing 18˜22 g were adaptively reared for 1 day, and then randomly divided into […] (5˜6 mice per group): the saline+solvent group, the saline+HTM group, the saline+HTMP group, the saline+HTMA group, the saline+HTMB group, the saline+rapamycin (250 nM) group, the carrageenan+solvent group, the carrageenan+HTM group, the carrageenan+HTMP group, the carrageenan+HTMA group, the carrageenan+HTMB group, and the carrageenan+rapamycin (250 nM) group. Where doses used for HTM, HTMP, HTMA, and HTMB were set at 1, 3, and 10 mg/mL, and their solutions all contained 5% DMSO. Experiments were designed based on previous studies (Zhang et al., 2018). Carrageenan was used to induce paw inflammation, and the experimental procedure was as follows:
(1) The thickness of the right hind foot of mice was measured with a vernier caliper before the experiment, and the measurement site was marked.
(2) The experimental group was then subcutaneously injected into the right hind paw with 10 μL of different concentrations of compound solutions. The control group was injected with 10 μL saline into the right hind paw.
(3) After administration, the carrageenan group was injected subcutaneously with 30 μL of 1% carrageenan solution into the right hind paw, and the other groups were injected with an equal volume of saline. The thickness of the right hind foot of each mouse was measured at the same site every 1 hour for the following 4 hours to observe the effect of the compounds on the change in foot thickness.

[2] = Antioxidant activity, DPPH free radical scavenging; type: biochemical; conditions: 1~50 μg/mL, 0.1 mM DPPH, absorbance at 517 nm
Procedure: In this experiment, a 0.1 mM DPPH solution was prepared with ethanol, and each sample solution/dispersion was separately mixed with the DPPH solution in order to dilute it into a reaction product with a concentration gradient of 1˜50 μg/mL to evaluate the concentration-dependent antioxidant potential. The reaction product was measured for its absorbance (AS) at 517 nm using an ultraviolet-visible spectrophotometer, and its antioxidant activity was measured using DPPH removal as an indicator. The percentage of DPPH free radical scavenging is calculated by the following formula: […]
AS is the absorbance of the sample and A0 is the absorbance of the control (only DPPH solution).

liver cancer = test: Antitumor activity, MTT cell viability, liver cancer; type: cell-based; conditions: 50 μg/mL, 24 hours, P<0.01
Procedure: (§1) In a 96-well microplate, 100 μL of culture medium was put in each well and inoculate four cell strains with a fusion degree of 80% at a density of 8×10^3 cells. Cells were grown at 37° C., CO2 (5%) and air (95%). Each 96-well plate was placed with a concentration gradient of 0˜100 μg/mL of test compounds HTM, HTMA, HTMB, and HTMP. After 24 hours of incubation, the medium was removed, and 0.5 mg/mL MTT solution was added to each medium with cells and continue to incubate the cells for 4 hours at 37° C. Then 100 μL of DMSO was added to dissolve formazan crystals. Finally, absorbance was measured at 570 nm using a microplate reader (Bioteck EON, USA). The viability of the cells was calculated as the percentage of cell viability compared to vehicle control-treated cells, which were arbitrarily assigned as 100% viability. Each independent experiment was repeated five times. (*P<0.05, **P<0.01, ***P<0.001)

bladder cancer = test: Antitumor activity, MTT cell viability, bladder cancer; type: cell-based; conditions: 50 μg/mL, 24 hours, P<0.01
Procedure: as §1

renal cancer = test: Antitumor activity, MTT cell viability, renal cancer; type: cell-based; conditions: 50 μg/mL, 24 hours, P<0.01
Procedure: as §1

breast cancer = test: Antitumor activity, MTT cell viability, breast cancer; type: cell-based; conditions: 50 μg/mL, 24 hours, P<0.01
Procedure: as §1

HepG2 cells = test: Cellular assay for hepatoprotective activity, CCl4-induced liver injury cell model; type: cell-based; conditions: compared with the CCl4 group; HepG2 cell homogenates
Procedure: HepG2 cells were seeded into 24-well plates and kept at 37° C. in 5% CO2 in order to achieve 80% fusion. To evaluate the effects of HTMA, HTMB, and HTMP on aspartate aminotransferase (AST) and alanine aminotransferase (ALT) activity, and compare the results with those of Silymarin (positive control) (FIG. 26), a cellular assay for hepatoprotective activity was carried out using a CCl4-induced liver injury cell model. The cells were treated with the compounds followed by ultrasound disruption and cell homogenization to prepare the cell homogenates for analysis.

In the case of Deoxyhangtaimycin [HTMP], the “right hind foot thickness” value [1] is reported as “reduced”, the “antioxidant capacity (DPPH free radical scavenging)” value [2] is reported as “have antioxidant capacity” and the “survival rate of liver cancer” value (liver cancer) is reported as “significantly inhibited”. For the same substance, the “survival rate of bladder cancer” value (bladder cancer) was “significantly inhibited”, the “survival rate of renal cancer” value (renal cancer) was “significantly inhibited” and the “survival rate of breast cancer” value (breast cancer) was “significantly inhibited”. For the same substance, the ALT levels (HepG2 cells) was “significantly reduced” and the AST levels (HepG2 cells) was “significantly reduced”.
